This passage reports TGI and GI50 results from PubChem BioAssay (NCI).

“And” between values parts separate entries of the source, which are not always exact repeats. Equal entries are not always repeated.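 48-hour exposure; five concentrations; linearly interpolated endpoints. GI50 is the concentration that inhibits growth by half. TGI marks complete inhibition of growth.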

What all share (test): NCI-60 cell line screen, 48 h
Assay [1] has as its system A498 renal.
In assay [2] the test system is COLO 205 colon.
The subject of assay [3] is HCT-15 colon.
The test system of assay [4] is NCI/ADR-RES ovarian.
The test system of assay [5] is CAKI-1 renal.
The test system of assay [6] is OVCAR-5 ovarian.
Assay [7] concerns SK-MEL-2 melanoma.
For assay [8], the system named is 786-0 renal.
In assay [9] the test system is MCF7 breast.
The subject of assay [10] is HOP-92 NSCLC.

In the case of `C=C(Cl)COC(=O)Nc1cccc(Cl)c1`, the TGI in [1] is 90.4 µM; in assay [2], above 100 µM; in assay [3], above 100 µM; in [4], 99.7 µM; in assay [5], above 100 µM; in [6], above 100 µM. Also, the TGI was 58.5 µM in [7], 92.2 µM in assay [8], above 100 µM in assay [9] and 64.9 µM in [10].

Take `Cc1ncc([N+](=O)[O-])n1CCNS(=O)(=O)CCCn1ccnc1[N+](=O)[O-]`: the TGI in assay [1], in assay [2], in assay [3], in assay [4], in assay [5] and in [6] was above 100 µM throughout. In addition, the TGI in [7], in [8], in assay [9] and in [10] was above 100 µM in each case.

Take `COc1ccc(C2=NN(C(=O)COc3ccc(Cl)cc3)C(O)(c3cc(F)c(Cl)cc3Cl)C2)cc1OC` (centres undefined): the GI50 in [1] was 13.1 µM; in assay [2], 1.63 µM; in assay [3], 1.39 µM; in assay [4], 2.94 µM; in [5], 1.68 µM; in [6], 5.91 µM. Further, the GI50 in assay [7] was 1.11 µM; in assay [8] it was 3.31 µM; in [9] it was 2.18 µM; in assay [10], 2.31 µM. Also, the TGI in assay [1] worked out at 26.2 µM; in [2], 3.41 µM; in assay [3], 3 µM; in assay [4], 8.73 µM; in assay [5], 3.6 µM; in [6], 13.3 µM. Further, the TGI in assay [7] was 3.24 µM; in assay [8] it was 8.9 µM; in assay [9] it was 8.21 µM; in [10], 13.2 µM.

For the molecule `c1ccc(C(=NNc2nc3ccccc3o2)c2ccccn2)nc1`, the GI50 in assay [1] was 0.117 µM; in assay [2], 0.0194 µM; in assay [3] it was 0.0376 µM; in assay [4], 0.0386 µM; in [5], 0.0497 µM; in assay [6] it was 0.0847 µM. Moreover, the GI50 was 0.465 µM in assay [7], 0.125 µM in assay [8], 0.0289 µM in [9] and 0.0751 µM in assay [10]. Further, the TGI in assay [1] was 0.834 µM and 6.5 µM; in [2] it was 14.4 µM; in assay [3] it was > 75.4 µM and 17.9 µM; in assay [5] it was 7.87 µM and 1.34 µM; in assay [7], 28.8 µM and 27.1 µM.

Take `CC1(C)OC[C@@H]([C@@]2(CO[Si](C)(C)C(C)(C)C)CC=CC(=O)O2)O1`: the GI50 in [1] was 18.6 µM; in [2] it was 33.5 µM; in [3], 34.7 µM; in [4], 21.7 µM; in assay [5], 12.2 µM; in assay [6], 28.6 µM. The GI50 in [7] is 40.4 µM; in assay [8], 20.7 µM; in [9], 36.8 µM; in [10] it was 14.1 µM. Further, the TGI in [1] is 36.1 µM; in assay [2], above 100 µM; in [3], above 100 µM; in [4], 49.2 µM; in assay [5] it was 57.7 µM; in assay [6], 69.3 µM. Further, the TGI was above 100 µM in assay [7], 40.4 µM in assay [8], above 100 µM in assay [9] and 43.4 µM in assay [10].

Consider `N#Cc1ccccc1NC(=O)/C(=N\NC(=O)c1ccncc1)C(c1cnc2ccc([N+](=O)[O-])cc2n1)[N+](=O)[O-]` (centres undefined), for which the TGI in assay [1], in assay [3], in assay [4], in assay [5], in assay [6] and in [7] was above 100 µM in each case. Further, the TGI in [8], in assay [9] and in assay [10] was above 100 µM in each case.

Consider `COc1ccc(C2c3cc4c(cc3OC(NNC(N)=O)C2C)OCO4)cc1` (centres undefined), for which the TGI in assay [1] is 8.59 µM; in assay [2], 15 µM; in assay [3], 36.3 µM; in assay [4], above 100 µM; in assay [5], above 100 µM; in [6], above 100 µM. The TGI in assay [7] was above 100 µM; in [8], 37.5 µM; in [9] it was above 100 µM; in assay [10], 78.7 µM.

In the case of `Cc1ccccc1CN1CC2=C(CCN(Cc3ccccc3)C2=O)N2CCN=C12`, the TGI in assay [1], in [2], in [3], in assay [4], in [5] and in [6] was above 100 µM throughout. Besides, the TGI is above 81.6 µM in assay [7], above 100 µM in [8], above 100 µM in assay [9] and above 100 µM in [10].

With `CCCCCCCCCNCCCCCCCCC`, the GI50 in assay [1] was 9.79 µM; in assay [2], 1.77 µM; in assay [3], 1.79 µM; in assay [4] it was 1.71 µM; in assay [5], 1.49 µM; in assay [6] it was 1.88 µM. In addition, the GI50 is 1.8 µM in assay [7], 1.98 µM in assay [8], 1.7 µM in assay [9] and 1.47 µM in assay [10]. Also, the TGI in [1] was 24.5 µM; in assay [2], 3.22 µM; in [3] it was 3.47 µM; in assay [4], 3.37 µM; in [5], 3.09 µM; in assay [6] it was 3.91 µM. Moreover, the TGI in [7] stood at 3.41 µM; in assay [8], 3.43 µM; in assay [9] it was 3.3 µM; in assay [10], 3.03 µM.

For the molecule `COc1cc(Cl)cc(-c2nn(C(=O)NCCN3CCN(C)CC3)cc2-c2ccncc2)c1`, the GI50 in assay [1] was 4.67 µM; in [2] it was 9.86 µM; in assay [3] it was 17.2 µM; in [4], 19.8 µM; in [5], 4.35 µM; in assay [6], 17.9 µM. The GI50 was 19.3 µM in assay [7], 5.99 µM in assay [8], 29.4 µM in assay [9] and 2.83 µM in [10]. The TGI in assay [1] amounted to 24.7 µM; in assay [2], 60.9 µM; in assay [3], 69.9 µM; in assay [4], 88.5 µM; in [5], 25.3 µM; in [6], 68.2 µM. Also, the TGI was 46 µM in assay [7], 25.6 µM in assay [8], above 100 µM in assay [9] and 26.2 µM in assay [10].
